Read-outs that look alike come from different tables or passages of the source.

For data set [1], the system named is human Nanog promoter. In words: Nanog-luc luciferase reporter assay (stably transfected CV1 cells). The format is cell-based. The following applies: for induction of Nanog-luc, comparison with known reprogramming enhancers (in words): OAC1 1 μM, BIO 2 μM, BIX 2 μM, AzaC 2 μM, Vc 25 μg/ml, Am580 10 nM, tranylcypromine 5 μM, VPA 0.5 mM, two days; for Nanog-luc fold Induction / fold induction at 1 µM: compound at 1 μM, Nanog-luc cells, triplicates; for fold induction at 1 µM: Chlorocebus aethiops, CV-1. The procedure: Oct4, Sox2, and Nanog form a positive regulatory loop to regulate the expression of each other, and Nanog is considered a downstream target gene of Oct4 and Sox2 (37). Therefore, activation of Nanog promoter was used as a validation assay for the identified compounds. Specifically, the Oct4 promoter-activating compounds were tested to ascertain whether they activate a human
Nanog promoter-driven luciferase reporter gene using in triplicate luciferase reporter assays.
(§1) Then the promoter sequences were cloned into pGL4.4-luc-Hyg vector (Promega) to get Oct4-luc or Nanog-luc construct and the fidelity of the Oct4 and Nanog promoter DNA sequences was confirmed by bi-directional sequencing. CV 1 cells were transfected with the Oct4-luc or Nanog-luc constructs and the stably-transfected cells were selected by hygromycine resistance.
(§2) Luciferase Reporter Assays: The Oct4-luc or Nanog-luc cells were treated with compound OAC 1 or its structural analogs at 1 μM concentration or at indicated concentrations in triplicates. Other compounds used include 2 μM BIO, 2 μM BIX, 2 μM
(§3) AzaC, 25 μg/ml Vc, 10 nM Am580, 5 μM tranylcypromine, and 0.5 mM VPA. Luciferase reporter assays were performed as described (51) 24 hr after compound treatment or at indicated time points. For Topflash reporter assays, 0.2 μg β-catenin-responsive Topflash reporter gene plasmid was introduced into CV1 cells using trasfection (Bio-Rad). Compounds were added 6 hr after transfection. Luciferase activity was measured 48 hr after compound treatment using the Glo Luciferase Assay System (Promega).

Data set [2] concerns human Oct4 promoter. Description: Oct4-luc luciferase reporter assay (stably transfected CV1 cells). The conditions noted are these: for induction of Oct4-luc, comparison with known reprogramming enhancers (in words): OAC1 1 μM, BIO 2 μM, BIX 2 μM, AzaC 2 μM, Vc 25 μg/ml, Am580 10 nM, tranylcypromine 5 μM, VPA 0.5 mM, two days; for Oct4-luc Activity / Oct4-luc fold Induction / fold induction at 1 µM: compound at 1 μM, Oct4-luc cells, triplicates. The class given is cell-based.
Source text: A high-throughput screening scheme was designed to identify Oct4 promoter-activating compounds using a luciferase reporter under the control of the human Oct4 promoter (Oct4-luc). […] A stable cell line (Oct4-luc) that expresses luciferase reporter driven by the exogenous Oct4 promoter was established using hygromycin-resistance as a selection marker. These Oct4-luc cells were used for high-throughput screening of a chemical library of 80,000 compounds. The luciferase reporter activity was measured 24 hr after compound treatment. Solvent treatment was included as a negative control.
as §1
Compound Screening: The Oct4-luc cells were seeded at 1.75×10^4 cells per well density into 96-well plates. Compounds were added to cells one day after cell seeding at the concentration of 10 μM for 24 hr in the High-Throughput Screening core facility at City of Hope. Compounds that induced luciferase activity 3-fold or more were selected for further validation in both Oct4-luc and Nanog-luc cells.
as §2, §3
For orientation: Reporter assays use an easily measured gene product as a stand-in for the process of interest.

[3] abbreviates: Homo sapiens, CV-1, 24 h, read-out: Oct4-luc Activity.
[4] abbreviates: read-out: Oct4-luc fold Induction.

With `N[C@@H]1C[C@H]1c1ccccc1` (racemic) [tranylcypromine, reference compound], in data set [1], the “induction of Nanog-luc, comparison with known reprogramming enhancers (in words)” value (“induction of Nanog-luc, comparison” for short) is “no significant effect”. Also, the “induction of Oct4-luc, comparison with known reprogramming enhancers (in words)” value (shortened to “induction of Oct4-luc, comparison”) in data set [2] is on record as “no significant effect”.
Consider `CC1(C)CCC(C)(C)c2cc(C(=O)Nc3ccc(C(=O)O)cc3)ccc21` [Am580, reference compound], for which the “induction of Nanog-luc, comparison” value in data set [1] is on record as “no significant effect”. Also, the “induction of Oct4-luc, comparison” value in data set [2] is recorded as “no significant effect”.
Regarding `COc1cc2nc(N3CCCN(C)CC3)nc(NC3CCN(Cc4ccccc4)CC3)c2cc1OC` [BIX, reference compound], the “induction of Nanog-luc, comparison” value in data set [1] is on record as “no significant effect”. Moreover, the “induction of Oct4-luc, comparison” value in data set [2] is reported as “no significant effect”.
Turning to `CN1CCC(c2c[nH]c3ccc(NC(=O)c4ccc(F)cc4)cc23)CC1` [Compound C16], the “Nanog-luc fold Induction” value in data set [1] was found to be 1.1 fold. For the same molecule, in data set [2], the “Oct4-luc Activity” value was “+ (molecules that induce Oct4-luc less than 1.8-fold were indicated as “+”)” and the “Oct4-luc fold Induction” value is listed as 1.0 fold.
For `Cc1ccc(C(=O)Nc2ccc3[nH]cc(C#N)c3c2)cc1` [Compound C17], in that order: 1.1 fold, “+ (molecules that induce Oct4-luc less than 1.8-fold were indicated as “+”)” and 1.1 fold.
For `O=C(Nc1ccc2[nH]ncc2c1)c1cccc(F)c1` [Compound C18], in that order: 1.2 fold, “+ (molecules that induce Oct4-luc less than 1.8-fold were indicated as “+”)” and 1.3 fold.
For `O=C(Nc1ccc2[nH]ncc2c1)c1cccc(Cl)c1` [Compound C19], in that order: 1.5 fold, “+ (molecules that induce Oct4-luc less than 1.8-fold were indicated as “+”)” and 1.6 fold.
As to `O=C(Nc1ccc2[nH]ncc2c1)c1cccc(Br)c1` [Compound C20], the “Nanog-luc fold Induction” value in data set [1] came to 1.1 fold. In data set [2], the “Oct4-luc Activity” value is “+ (molecules that induce Oct4-luc less than 1.8-fold were indicated as “+”)” and the “Oct4-luc fold Induction” value worked out at 1.5 fold.
Regarding `O=C(Nc1ccc2[nH]ncc2c1)c1cccc(C(F)(F)F)c1` [Compound C21], in data set [1], the “Nanog-luc fold Induction” value is on record as 1.2 fold. In data set [2], the “Oct4-luc Activity” value was “+ (molecules that induce Oct4-luc less than 1.8-fold were indicated as “+”)” and the “Oct4-luc fold Induction” value stood at 1.2 fold.
For the molecule `O=C(Nc1ccc2[nH]ncc2c1)c1ccccc1F` [Compound C22], the “Nanog-luc fold Induction” value in data set [1] is recorded as 1.6 fold. For the same molecule, in data set [2], the “Oct4-luc Activity” value was “+ (molecules that induce Oct4-luc less than 1.8-fold were indicated as “+”)” and the “Oct4-luc fold Induction” value is given as 1.5 fold.
In the same order, the values of `O=C(Nc1ccc2[nH]ncc2c1)c1ccccc1Cl` [Compound C23] are 1.6 fold, “+ (molecules that induce Oct4-luc less than 1.8-fold were indicated as “+”)” and 1.7 fold.
On to `O=C(Nc1ccc2[nH]ncc2c1)c1ccccc1Br` [Compound C24], for which the “Nanog-luc fold Induction” value in data set [1] is recorded as 1.6 fold. Moreover, in data set [2], the “Oct4-luc Activity” value is reported as “+ (molecules that induce Oct4-luc less than 1.8-fold were indicated as “+”)” and the “Oct4-luc fold Induction” value is on record as 1.5 fold.
In the same order, the values of `COc1ccccc1C(=O)Nc1ccc2[nH]ncc2c1` [Compound C25] are 1.6 fold, “+ (molecules that induce Oct4-luc less than 1.8-fold were indicated as “+”)” and 1.5 fold.
In the same order, the values of `CCOc1ccccc1C(=O)Nc1ccc2[nH]ncc2c1` [Compound C26] are 1.2 fold, “+ (molecules that induce Oct4-luc less than 1.8-fold were indicated as “+”)” and 1.2 fold.
For `COc1cccc(C(=O)Nc2ccc3[nH]ncc3c2)c1OC` [Compound C27], in that order: 1.4 fold, “+ (molecules that induce Oct4-luc less than 1.8-fold were indicated as “+”)” and 1.4 fold.
In the case of `COc1ccc(C(=O)Nc2ccc3[nH]ncc3c2)c(OC)c1` [Compound C28], the “Nanog-luc fold Induction” value in data set [1] came to 1.4 fold. In data set [2], the “Oct4-luc Activity” value is “+ (molecules that induce Oct4-luc less than 1.8-fold were indicated as “+”)” and the “Oct4-luc fold Induction” value came to 1.4 fold.
As for `COc1ccc(C(=O)Nc2ccc3[nH]ncc3c2)cc1OC` [Compound C29], the “Nanog-luc fold Induction” value in data set [1] is listed as 1.1 fold. Also, in data set [2], the “Oct4-luc Activity” value is on record as “+ (molecules that induce Oct4-luc less than 1.8-fold were indicated as “+”)” and the “Oct4-luc fold Induction” value came out at 1.1 fold.
For `CCOc1ccc(C(=O)Nc2ccc3[nH]ncc3c2)cc1OCC` [Compound C30], the “Nanog-luc fold Induction” value in data set [1] is 1.1 fold. Besides, in data set [2], the “Oct4-luc Activity” value was “+ (molecules that induce Oct4-luc less than 1.8-fold were indicated as “+”)” and the “Oct4-luc fold Induction” value amounted to 1.0 fold.
In the case of `O=C(Nc1ccc2[nH]nnc2c1)c1cccc(Cl)c1` [Compound C31], the “Nanog-luc fold Induction” value in data set [1] turned out to be 1.1 fold. In data set [2], the “Oct4-luc Activity” value is recorded as “+ (molecules that induce Oct4-luc less than 1.8-fold were indicated as “+”)” and the “Oct4-luc fold Induction” value was 1.0 fold.
In the same order, the values of `Cc1nc2cc(NC(=O)c3ccc([N+](=O)[O-])cc3)ccc2[nH]1` [Compound C32] are 1.2 fold, “+ (molecules that induce Oct4-luc less than 1.8-fold were indicated as “+”)” and 1.3 fold.
Regarding `COc1cc(OC)c(C(=O)Nc2ccc3[nH]ncc3c2)cc1OC` [Compound C33], the fold induction at 1 µM is 1.1 in data set [1], below 1.8 in data set [2] (setting [3]) and 1 in data set [2] (setting [4]).
Regarding `COc1ccc(Cl)cc1C(=O)Nc1ccc2[nH]ncc2c1` [Compound C34], the results for the fold induction at 1 µM in data set [1], in data set [2] (setting [3]) and in data set [2] (setting [4]) were 1.38, below 1.8 and 1.23, respectively.
For `O=C(Nc1ccc2[nH]ncc2c1)c1cc(F)c(F)cc1Cl` [Compound C35], in that order: 1.24, below 1.8 and 1.15.
For `O=C(Nc1ccc2[nH]ncc2c1)c1c(F)c(F)c(F)c(F)c1F` [Compound C36], in that order: 1.02, below 1.8 and 1.
For `COc1cc(C(=O)Nc2ccc3[nH]nnc3c2)cc(OC)c1OC` [Compound C37], in that order: 1.08, below 1.8 and 1.05.
`CC(C)(C)OC(=O)Nc1ccc(C(=O)Nc2ccc3[nH]ncc3c2)cc1` [Compound C38]: the fold induction at 1 µM is 1.09 in data set [1], below 1.8 in data set [2] (setting [3]) and 1.2 in data set [2] (setting [4]).
In the same order, the values of `Nc1ccc(C(=O)Nc2ccc3[nH]ncc3c2)cc1` [Compound C39] are 1.55, below 1.8 and 1.62.
Regarding `CC(C)(C)OC(=O)NCc1ccc(C(=O)Nc2ccc3[nH]ncc3c2)cc1` [Compound C40], the fold induction at 1 µM is 0.96 in data set [1], below 1.8 in data set [2] (setting [3]) and 0.97 in data set [2] (setting [4]).
In the same order, the values of `NCc1ccc(C(=O)Nc2ccc3[nH]ncc3c2)cc1` [Compound C41] are 1.06, below 1.8 and 1.01.
Consider `O=C(CCCCC1SCC2NC(=O)NC21)NCc1ccc(C(=O)Nc2ccc3[nH]ncc3c2)cc1` (stereo not drawn) [Compound C42], for which the fold induction at 1 µM is 0.97 in data set [1], below 1.8 in data set [2] (setting [3]) and 0.91 in data set [2] (setting [4]).
In the case of `O=C(Nc1ccc2[nH]ccc2c1)c1ccc(F)cc1` [OAC3, 4-fluoro-N-(1H-indol-5-yl)benzamide], the results for the fold induction at 1 µM in data set [1], in data set [2] (setting [3]) and in data set [2] (setting [4]) were 3.5, at least 1.8 and 3.7, respectively.

These data come from US8962322B2, “Enhancers of induced pluripotent stem cell reprogramming” (City of Hope, priority 2012, dated 2015).
